This passage reports IC50 and GI50 results from patent EP2924039A1, “2-Amino-1-phenyl-pyrrolo[3,2-b]quinoxaline-3-carboxamide derivates” (Universität Zürich, priority 2014, dated 2015).

Broadly, the IC50 is the concentration that gives 50% inhibition. A word on the GI50: it is the concentration that inhibits growth by half. Lower therefore signals greater sensitivity of the cells.

In one assay the target is T1, full-length human EphB4 (Homo sapiens, UniProt P54760).
T1 construct: stably transfected to overexpress full-length human EphB4; host or cells: Mouse embryonic fibroblast cells
T1 sequence (P54760 16-987): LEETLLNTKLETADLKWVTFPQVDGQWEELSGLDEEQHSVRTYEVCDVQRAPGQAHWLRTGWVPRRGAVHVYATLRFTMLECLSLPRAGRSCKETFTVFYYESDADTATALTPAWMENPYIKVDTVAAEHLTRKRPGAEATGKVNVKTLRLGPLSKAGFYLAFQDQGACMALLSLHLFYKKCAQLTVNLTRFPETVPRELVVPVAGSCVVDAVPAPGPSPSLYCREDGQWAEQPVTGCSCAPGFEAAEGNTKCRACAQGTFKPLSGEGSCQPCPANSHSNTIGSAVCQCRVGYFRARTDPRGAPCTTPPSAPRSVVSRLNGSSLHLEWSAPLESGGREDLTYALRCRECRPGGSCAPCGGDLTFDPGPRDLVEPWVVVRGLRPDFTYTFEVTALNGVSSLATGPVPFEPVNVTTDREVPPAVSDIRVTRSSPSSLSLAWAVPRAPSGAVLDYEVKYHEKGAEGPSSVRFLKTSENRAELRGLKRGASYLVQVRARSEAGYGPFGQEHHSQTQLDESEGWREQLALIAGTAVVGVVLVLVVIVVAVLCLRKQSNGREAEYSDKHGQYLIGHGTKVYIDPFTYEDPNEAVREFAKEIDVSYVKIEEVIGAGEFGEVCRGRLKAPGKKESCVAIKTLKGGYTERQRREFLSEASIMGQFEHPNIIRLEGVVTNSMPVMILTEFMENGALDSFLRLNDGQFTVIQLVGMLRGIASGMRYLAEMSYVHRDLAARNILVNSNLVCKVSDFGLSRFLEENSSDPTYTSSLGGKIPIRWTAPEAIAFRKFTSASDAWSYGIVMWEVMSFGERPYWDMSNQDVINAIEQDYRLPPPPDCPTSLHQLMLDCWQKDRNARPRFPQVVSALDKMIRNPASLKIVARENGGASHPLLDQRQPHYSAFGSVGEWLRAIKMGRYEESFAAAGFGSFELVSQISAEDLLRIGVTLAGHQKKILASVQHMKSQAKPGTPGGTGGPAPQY
The experiment in a line: Cellular phosphorylation assay (sandwich ELISA, ProQinase). In kind it is cell-based. As to conditions: mouse embryonic fibroblast cells overexpressing EphB4, stimulated with murine ephrinB2-Fc, read-out: cell IC50. As for the experimental part: Cellular phosphorylation assays: The cellular phosphorylation experiments were performed at ProQinase GmbH. Mouse embryonic fibroblast cells, stably transfected to overexpress full-length human EphB4, were plated at 4×10^4 cells/well in DMEM supplemented with 10% FCS in 48-well culture dishes. Medium was replaced by DMEM without FCS before test compounds prediluted in 100% DMSO were added (final DMSO concentration of 1 %). After incubation for 90 min at 37 °C, cells were stimulated for 2 h at 4 °C using murine ephrinB2-Fc at a final concentration of 2 µg/ml. Quantification of EphB4 phosphorylation was assessed in a 96-well plate via sandwich ELISA using a myc capture antibody and an antiphosphotyrosine detection antibody. Table 4: Cell IC50 (µmol/l) in cells overexpressing EphB4

The test system of assay [1] is A498 (kidney cancer) cells. The experiment in a line: Cell culture and GI50 determination (resazurin), A-498. In kind it is cell-based. The note with it: Homo sapiens, A-498, 48h incubation. As for the experimental part:
Krek (Institute of Cell Biology, ETH Zurich) were cultured in Dulbelcco's modified Eagle's medium (DMEM) supplemented with 10% (v/v) fetal bovine serum. K562 leukemia cells obtained from Dr. Silvio Hemmi (Institute of Molecular Life Sciences, UZH) were cultured using RPMI medium supplemented with 5% (v/v) fetal bovine serum. All the media was additionally supplemented with 100 units/mL of penicillin, 100µg/mL of streptomycin, 4.5 g/L glucose, 0.11g/L sodium pyrubate and 2mM glutamine and the cells were grown at 37°C in 5% CO2 atmosphere with 80% relative humidity.
The old media was removed, the cells were washed with PBS (phosphate-buffered saline) and fresh media was added. […] Control cells were treated with the same DMSO concentrations. […] After 3 hours, the fluorescence was quantified using a fluorescence microplate reader (Biotek, FLx800™) at the respective excitation and emission wavelength of 560 and 590 nm. Resazurin becomes fluorescent under mitochondrial reduction and its emission directly correlates with the metabolic stability of the cells. […] All measurements were performed at least in triplicate (see table 1).

`NC(=O)c1c(N)n(-c2cccc(C(=O)Nc3cccc(C(F)(F)F)c3)c2)c2nc3ccccc3nc12` [Compound 10c, 2-amino-1-(3-((3-(trifluoromethyl)phenyl)carbamoyl)phenyl)-1H-pyrrolo[2,3-b]quinoxaline-3-carboxamide]: the half-inhibitory concentration (IC50) on full-length human EphB4 is 0.016 µM. As to `NC(=O)c1c(N)n(-c2cccc(NC(=O)c3cccc(C(F)(F)F)c3)c2)c2nc3ccccc3nc12` [Compound 10d, 2-amino-1-(3-(3-(trifluoromethyl)benzamido)phenyl)-1H-pyrrolo[2,3-b]quinoxaline-3-carboxamide], the 50% inhibitory concentration (IC50) at full-length human EphB4 is 0.02 µM. The same molecule gave a GI50 in assay [1] of 13.4 µM.
